According to patent publication US20260115190A1, “DISPERSIONS OF ETRUMADENANT” (Arcus Biosciences, Inc., priority 2022, published 2026):

Columns and labels:
[1] = Phase 1 relative bioavailability (capsule v. tablet) and food effect study; format: in vivo, human
Excerpt: This example describes a Phase 1 study to compare the single-dose PK of an etrumadenant tablet versus an etrumadenant capsule, in healthy adult participants (19-55 years of age), and to evaluate the effect of food on the single-dose PK of etrumadenant tablet, in healthy adult participants.
The study was an open-label, randomized, 3-treatment, 3 period crossover study to evaluate the relative bioavailability (BA) of etrumadenant tablet and capsule formulations and the effect of food on the tablet formulation. On Day 1 of each period, a single dose of etrumadenant was administered in a 3-period crossover fashion. Participants (n=24) received etrumadenant capsules under fasting (Treatment A) conditions and etrumadenant tablets under fasting (Treatment B) and fed (high-fat meal; Treatment C) conditions. PK samples for etrumadenant and its metabolites were taken predose and up to 120 hours post dose. There was a washout of at least 7 days between the etrumadenant doses. All participants who received at least one dose of etrumadenant (including participants who terminate the study early) were asked to return to the Clinical Research Unit (CRU) 14 (+2) days after the last dose for follow-up procedures, and to determine if any adverse event (AE) has occurred since the last study visit.
Study treatments are described as follows. […]
Additional PK parameters were calculated if deemed appropriate. […]

[2] = tested on: CYP3A4, CYP2C8, and uridine 5′-diphospho glucuronosyltransferase (UGT) enzyme isoforms; test: In vitro metabolism of etrumadenant; format: in vitro ADME; conditions: in vitro data

Cmax, AUC and Tmax in capsules and tablets ([1]; 150 mg, fasting): statistically equivalent | effect of fed conditions on overall exposure (AUClast and AUCINF) compared to fasting condition ([1]; tablet 150 mg): no effect
SMILES: Cc1c(C#N)cccc1-c1cc(-c2cn(Cc3cccc(C(C)(C)O)n3)nn2)nc(N)n1 [Etrumadenant, 3-[2-amino-6-(1-{[6-(2-hydroxypropan-2-yl)pyridine-2-yl]methyl}-1H-1,2,3-triazol-4-yl)pyrimidin-4-yl]-2-methylbenzonitrile]
etrumadenant metabolism mediated by [2]: mediated by CYP3A4, CYP2C8, and uridine 5′-diphospho glucuronosyltransferase (UGT) enzyme isoforms
